The test concerns BDF1 mice, P388 leukemia ip, median survival T/C. In words: NCI In Vivo Anticancer Drug Screen. Data for tumor model P388 Leukemia (intraperitoneal) in B6D2F1 (BDF1) mice. As to conditions: endpoint: median survival time, higher = longer survival. The essentials:
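Vehicle-dosed animals serve as the reference; survival of compound-dosed, tumour-implanted mice is divided by it.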

[1] abbreviates: dose: 100.0 mg/kg/injection, schedule: Q04DX003 (ip), vehicle: saline with Tween-80.
[2] abbreviates: dose: 50.0 mg/kg/injection, schedule: Q01DX009 (ip), vehicle: saline with Tween-80.
[3] abbreviates: dose: 100.0 mg/kg/injection, schedule: Q01DX009 (ip), vehicle: saline with Tween-80.
Setting [4] is: dose: 100.0 mg/kg/injection, schedule: Q04DX003 (ip), vehicle: Klucel (hydroxypropylcellulose) (HPC).
Setting [5] is: dose: 400.0 mg/kg/injection, schedule: Q04DX003 (ip), vehicle: Klucel (hydroxypropylcellulose) (HPC).
[6] abbreviates: dose: 50.0 mg/kg/injection, schedule: Q01DX009 (ip), vehicle: saline.
[7] abbreviates: dose: 25.0 mg/kg/injection, schedule: Q01DX009 (ip), vehicle: saline with Tween-80.
Setting [8] is: dose: 12.5 mg/kg/injection, schedule: Q01DX009 (ip), vehicle: saline.
Setting [9] is: dose: 25.0 mg/kg/injection, schedule: Q01DX009 (ip), vehicle: saline.
The mark [10] stands for this setting: dose: 6.25 mg/kg/injection, schedule: Q01DX009 (ip), vehicle: saline.
Setting [11] is: dose: 25.0 mg/kg/injection, schedule: Q04DX003 (ip), vehicle: saline with Tween-80.
[12] abbreviates: dose: 12.5 mg/kg/injection, schedule: Q01DX009 (ip), vehicle: saline with Tween-80.

Drawing on PubChem BioAssay AID328 (DTP/NCI, 2004), this text covers T/C for 22 molecules.

“And” between values parts separate entries of the source, which are not always exact repeats. Equal entries are not always repeated. Inconclusive results and toxic doses are left out.

In the case of `Cc1ccc2[nH]c(=S)[nH]c(=S)c2c1`, the T/C by setting is: under setting [1], 108 % of control; (dose: 200.0 mg/kg/injection, schedule: Q04DX003 (ip), vehicle: saline with Tween-80) 95 % of control; (dose: 400.0 mg/kg/injection, schedule: Q04DX003 (ip), vehicle: saline with Tween-80) 108 % of control.

For the molecule `COc1ccc(C2=CC(c3ccc4c(c3)OCO4)c3c(c4ccccc4oc3=O)O2)cc1OC` (centres undefined), the T/C is, setting by setting: (dose: 12.5 mg/kg/injection, schedule: Q01DX009 (ip), vehicle: water) 96 % of control; (dose: 25.0 mg/kg/injection, schedule: Q01DX009 (ip), vehicle: water) 106 % of control; (dose: 50.0 mg/kg/injection, schedule: Q01DX009 (ip), vehicle: water) 102 % of control; (dose: 50.0 mg/kg/injection, schedule: Q04DX003 (ip), vehicle: water) 101 % of control; (dose: 100.0 mg/kg/injection, schedule: Q01DX009 (ip), vehicle: water) 93 % of control; (dose: 100.0 mg/kg/injection, schedule: Q04DX003 (ip), vehicle: water) 110 % of control. Moreover, the T/C (dose: 200.0 mg/kg/injection, schedule: Q04DX003 (ip), vehicle: water) is 94 % of control and the T/C (dose: 400.0 mg/kg/injection, schedule: Q04DX003 (ip), vehicle: water) was 94 % of control.

On to `CN(C)c1ccc(/C=C/c2ccnc3c(Cl)cccc23)cc1`, for which the T/C reads like this: under setting [2], 94 % of control; under setting [3], 98 % of control; (dose: 200.0 mg/kg/injection, schedule: Q01DX009 (ip), vehicle: saline with Tween-80) 100 % of control.

Turning to `C=C(C)c1cc2c(cc1O)OCC2C` (centres undefined), the T/C is, setting by setting: under setting [4], 92 % of control; (dose: 300.0 mg/kg/injection, schedule: Q01DX009 (ip), vehicle: Klucel (hydroxypropylcellulose) (HPC)) 90 % of control; under setting [5], 92 % of control.

Regarding `N#Cc1ccc(OC(=O)c2ccc(N=C(N)N)cc2)cc1`, the T/C reads like this: under setting [6], 100 % of control; (dose: 100.0 mg/kg/injection, schedule: Q01DX009 (ip), vehicle: saline) 104 % of control; (dose: 100.0 mg/kg/injection, schedule: Q04DX003 (ip), vehicle: saline) 104 % of control; (dose: 200.0 mg/kg/injection, schedule: Q01DX009 (ip), vehicle: saline) 90 % of control; (dose: 200.0 mg/kg/injection, schedule: Q04DX003 (ip), vehicle: saline) 113 % of control.

For the molecule `Cc1ccc(S(=O)(=O)Cl)c(Cl)c1`, the T/C reads like this: under setting [7], 100 % of control; under setting [2], 116 % of control; (dose: 50.0 mg/kg/injection, schedule: Q04DX003 (ip), vehicle: saline with Tween-80) 104 % of control; under setting [3], 112 % of control; under setting [1], 113 % of control.

`CN(C)CCCNc1nc(NCCCN(C)C)c2nc(-c3ccccc3)c(-c3ccccc3)nc2n1`: the T/C (dose: 50.0 mg/kg/injection, schedule: Q01DX005 (ip), vehicle: saline with Tween-80) was 104 % of control.

`O=[N+]([O-])c1ccc(N2CCN(CCO)CC2)c2c1no[n+]2[O-]`: the T/C is 154 % of control (dose: 15.0 mg/kg/injection, schedule: Q01DX009 (ip), vehicle: saline with Tween-80) and 161 % of control (dose: 30.0 mg/kg/injection, schedule: Q01DX009 (ip), vehicle: saline with Tween-80).

With `C=CCNC(=O)C(Br)(CC)CC`, the T/C was 100 % of control under setting [8]; 100 % of control under setting [9]; 88 % of control and 100 % of control under setting [6].

As for `COc1ccc(OC)c2c1C(SC)C(=O)N2C` (centres undefined), the T/C is 100 % of control (dose: 50.0 mg/kg/injection, schedule: Q04DX002 (ip), vehicle: saline with Tween-80); 100 % of control (dose: 100.0 mg/kg/injection, schedule: Q04DX002 (ip), vehicle: saline with Tween-80); 107 % of control (dose: 200.0 mg/kg/injection, schedule: Q04DX002 (ip), vehicle: saline with Tween-80).

Turning to `COc1ccc(NC(=O)Oc2c(C(C)C)cccc2C(C)C)cc1`, the T/C under setting [4] is 100 % of control; the T/C (dose: 200.0 mg/kg/injection, schedule: Q04DX003 (ip), vehicle: Klucel (hydroxypropylcellulose) (HPC)) was 91 % of control; the T/C under setting [5] is 100 % of control.

For `CCN(CC)CCCC(C)NC(=O)c1ccc2c(c1)C(=O)c1ccccc1C2=O` (centres undefined), the T/C (dose: 50.0 mg/kg/injection, schedule: Q01DX005 (ip), vehicle: saline) was 98 % of control and the T/C (dose: 100.0 mg/kg/injection, schedule: Q01DX005 (ip), vehicle: saline) was 89 % of control.

As for `C[N+]1=C2CCCCCC2=C(N)CC1`, the T/C was 100 % of control under setting [10]; 100 % of control under setting [8]; 91 % of control (dose: 12.5 mg/kg/injection, schedule: Q04DX003 (ip), vehicle: saline sonified); 100 % of control under setting [9].

Take `OCCOCCOCCN1CCN(CCCN2c3ccccc3Sc3ccc(C(F)(F)F)cc32)CC1`: the T/C was 91 % of control (dose: 0.79 mg/kg/injection, schedule: Q01DX009 (ip), vehicle: saline) and 112 % of control under setting [10].

For the molecule `c1cc[c]([Sn]([O][Sn]([c]2ccccc2)([c]2ccccc2)[c]2ccccc2)([c]2ccccc2)[c]2ccccc2)cc1`, the T/C under setting [11] is 95 % of control.

`O=c1[nH]c2ccccc2nc1CBr`: the T/C reads like this: (dose: 6.25 mg/kg/injection, schedule: Q01DX009 (ip), vehicle: saline with Tween-80) 118 % of control and 122 % of control; (dose: 7.5 mg/kg/injection, schedule: Q04DX003 (ip), vehicle: saline with Tween-80) 118 % of control; under setting [12], 118 % of control; (dose: 12.5 mg/kg/injection, schedule: Q04DX003 (ip), vehicle: saline with Tween-80) 109 % of control; (dose: 15.0 mg/kg/injection, schedule: Q04DX003 (ip), vehicle: saline with Tween-80) 104 % of control; under setting [11], 113 % of control. The T/C is, setting by setting: (dose: 30.0 mg/kg/injection, schedule: Q04DX003 (ip), vehicle: saline with Tween-80) 118 % of control; (dose: 60.0 mg/kg/injection, schedule: Q04DX003 (ip), vehicle: saline with Tween-80) 100 % of control.

`O/N=C(\c1ccccc1)c1ccccn1`: the T/C was 96 % of control under setting [12], 90 % of control under setting [7] and 96 % of control under setting [2].

On to `COc1cccc2c1C(=O)c1c(O)c3c(c(O)c1C2=O)C[C@@](O)(C(=O)CO)C[C@@H]3OC1CC(NC(=O)CN)C(O)C(C)O1` (some centres undefined), for which the T/C runs as follows: (dose: 1.56 mg/kg/injection, schedule: Q01DX009 (ip), vehicle: other) 108 % of control; (dose: 3.13 mg/kg/injection, schedule: Q01DX009 (ip), vehicle: other) 110 % of control; (dose: 6.25 mg/kg/injection, schedule: Q01DX009 (ip), vehicle: other) 105 % of control; (dose: 12.5 mg/kg/injection, schedule: Q01DX009 (ip), vehicle: other) 99 % of control; (dose: 25.0 mg/kg/injection, schedule: Q01DX009 (ip), vehicle: other) 114 % of control.

As to `O=c1ccccn1CC1(c2ccccc2)OCCO1`, the T/C was 95 % of control (dose: 100.0 mg/kg/injection, schedule: Q01DX009 (ip), vehicle: Klucel (hydroxypropylcellulose) (HPC)); 91 % of control (dose: 200.0 mg/kg/injection, schedule: Q01DX009 (ip), vehicle: Klucel (hydroxypropylcellulose) (HPC)); 95 % of control (dose: 400.0 mg/kg/injection, schedule: Q01DX009 (ip), vehicle: Klucel (hydroxypropylcellulose) (HPC)).

In the case of `CC1B(O)Nc2nc(=S)[nH]c(N)c21` (centres undefined), the T/C is, setting by setting: (dose: 50.0 mg/kg/injection, schedule: Q04DX003 (ip), vehicle: saline sonified) 100 % of control; (dose: 100.0 mg/kg/injection, schedule: Q04DX003 (ip), vehicle: saline sonified) 100 % of control; (dose: 200.0 mg/kg/injection, schedule: Q04DX003 (ip), vehicle: saline sonified) 100 % of control.

Regarding `CC12CCC3C4CCC(=O)C(O)=C4CCC3C1CCC2OC(=O)CCC1CCCC1` (centres undefined), the T/C reads like this: (dose: 100.0 mg/kg/injection, schedule: Q04DX003 (sc), vehicle: steriod suspending solution) 86 % of control; (dose: 400.0 mg/kg/injection, schedule: Q04DX003 (sc), vehicle: steriod suspending solution) 95 % of control.

With `CN(Cc1ccc(Nc2ccccc2)cc1)C1CCCCC1`, the T/C reads like this: (dose: 50.0 mg/kg/injection, schedule: Q01DX009 (ip), vehicle: other) 113 % of control; (dose: 100.0 mg/kg/injection, schedule: Q01DX009 (ip), vehicle: other) 160 % of control.
